Consider 1 molecule from patent US12195557B2, “Optimised compounds” (AXELIA ONCOLOGY PTY LTD, priority 2017, dated 2025).

Series [1] relates to other TLR pattern recognition receptors (hTLR3, hTLR4, hTLR5, hTLR7, hTLR8, hTLR9). As to the kind of experiment: TLR panel, NF-κB inducible SEAP reporter in HEK293 cells: other TLRs. The class given is cell-based, human and mouse. As for the experimental part: INNA-006 was assessed for its ability to activate a range of other TLR pattern recognition receptors. These assessments were conducted using both human and mouse TLR panels. These assays detect a secreted embryonic alkaline phosphatase (SEAP) reporter under the control of a promoter which is inducible by NF-κB activation in HEK293 cells. The secreted embryonic alkaline phosphatase (SEAP) reporter is under the control of a promoter inducible by the transcription factor NF-κB. This reporter gene allows the monitoring of signaling through the TLR, based on the activation of NF-κB. In a 96-well plate (200 μL total volume) containing the appropriate cells (50,000-75,000 cells/well), 20 μL of the test article or the positive control ligand is added to the wells. The media added to the wells is designed for the detection of NF-κB induced SEAP expression. After a 16-24 hr incubation the optical density (OD) is read at 650 nm on a Molecular Devices SpectraMax 340PC absorbance detector. • hTLR2: HKLM (heat-killed Listeria monocytogenes) at 1×10^8 cells/mL • hTLR3: Poly(I:C) HMW at 1 μg/mL • hTLR4: E. coli K12 LPS at 100 ng/mL • hTLR5: S. typhimurium flagellin at 100 ng/mL • hTLR7: CL307 at 1 μg/mL • hTLR8: CL075 at 1 μg/mL • hTLR9: CpG ODN2006 at 1 μg/mL.

The nature of series [2]: in vitro. To be noted: cynomolgus monkey, hepatocytes.
Series [3] in a line: in vitro. The settings on record: dog, dog plasma.
For series [4] the following is noted: human plasma, 37° C., 4 h time course.
Series [5] in a line: Dynamic light scattering (DLS) particle size. The settings on record: within 2 hours of sample preparation. The class given is physicochemical. On the procedure: INNA-011 and INNA-006 form micelle-type aggregates in both aqueous and organic solutions. The size distribution and polydispersity of particles of INNA-006 and INNA-011 were determined by dynamic light scattering (DLS) and size exclusion chromatography (University of Melbourne).
As the concentration of INNA-006 is increased, material with a particle size centered on a radius of ˜7 nm accumulates within 2 hours of the sample preparation as measured by DLS. This accumulation starts at a concentration of ˜16 μM, (0.02 mg/ml, represents the 0.16 nmole/10 μl curve) and is clearly discernable at 125 μM (0.17 mg/ml, represents the 1.25 nmole/10 μl curve) and above.
At the concentrations of 2 mM to […] particle sizes (7.4-7.7 nm) were larger than that observed with INNA-006 and additional species outside of this main sequence were more ordered and less dominant.

Structures are written as SMILES. Where only a bound is given, the exact number is not on record here.

Usually half-life stands for the time in which the quantity being followed falls by half. Low readings indicate rapid decline, high ones slow decline. Usually hepatocyte CLint stands for a measure of how fast metabolising enzymes remove a compound, apart from limits set by blood flow. For `CCC(=O)OCC(CSCC(N)C(=O)NC(CO)C(=O)NCCOCC(=O)NCC(N)=O)OC(=O)CC` (stereo not drawn) [INNA-006, Pam2Cys-Ser-PEG], in series [1], the “activation of any other TLR tested” value is “no activation”. Besides, in the series “in vitro [2]”, the half-life at 0.5 μM was > 6.25 h and the hepatocyte CLint at 0.5 μM is < 2 µL/min/1e6 cells. The molecule also showed a half-life in “in vitro [3]” of 8.9 h. In addition, in series [4], the plasma half-life entry is “could not be calculated due to insufficient degradation”. Besides, the “concentration at which accumulation of ~7 nm particles starts” value in series [5] (DLS) is ~16 µM. Also, the “particle size (radius) by DLS” value in series [5] (INNA-011 at 2 mM to 8 pM in PBS) is recorded as “around 7 nm”.
